# Reference: US9701689B2, “Substituted pyridines and pyridazines as CCR10 receptor inhibitors” (KYOWA HAKKO KIRIN CO., LTD., priority 2012, dated 2017)
# Target: T1, human CCR10 (Homo sapiens, UniProt P46092)
# T1 construct: expressed in transfected cells; host or cells: KJMGER8 cells (Namalwa cell-derived line), beta-estradiol-induced; hCCR10G16 cells
# T1 sequence (P46092 1-362): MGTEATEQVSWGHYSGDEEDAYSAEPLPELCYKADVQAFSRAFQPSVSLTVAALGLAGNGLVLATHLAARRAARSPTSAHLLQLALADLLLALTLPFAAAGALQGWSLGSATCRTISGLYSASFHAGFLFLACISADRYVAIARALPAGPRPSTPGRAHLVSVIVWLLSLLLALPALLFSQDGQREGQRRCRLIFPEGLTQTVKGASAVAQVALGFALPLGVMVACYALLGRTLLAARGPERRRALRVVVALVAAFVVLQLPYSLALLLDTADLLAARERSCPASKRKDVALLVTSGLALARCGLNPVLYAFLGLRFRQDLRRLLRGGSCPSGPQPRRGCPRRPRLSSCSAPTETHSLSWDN
# Experiment: CCR10 antagonistic effect: calcium assay of human CCR10 (CTACK-induced increase of intracellular calcium in hCCR10G16 cells)
# Assay type: cell-based
# Details: at a concentration of not more than 1000 nmol/L; human CCR10-expressing hCCR10G16 cells, 300 nmol/L CTACK added; read-out: inhibition of increase in the calcium ion concentration
# Outline: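 Inhibition of CTACK-evoked calcium flux (max minus min Fluo-3 fluorescence over ~5 min, FDSS) was calculated against control in β-estradiol-induced human CCR10/Gα16 KJMGER8 cells, after 30 min compound preincubation at 37 °C; CTACK added from a 300 nmol/L solution.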
row,SMILES,inhibition at up to 1 µM
1,"CCNC(=O)NS(=O)(=O)c1cc(Nc2ccc(Cl)cc2C)c(C(=O)N2CCC(c3ccc(F)cc3)CC2)cn1 [Compound 169, 4-(4-chloro-2-methylphenylamino)-N-(ethylcarbamoyl)-5-[4-(4-fluorophenyl)piperidine-1-carbonyl]pyridine-2-sulfonamide]",≥ 50%
2,"CCCNC(=O)NS(=O)(=O)c1cc(Nc2ccc(Cl)cc2C)c(C(=O)N2CCC(c3ccc(F)cc3)CC2)cn1 [Compound 170, 4-(4-chloro-2-methylphenylamino)-5-[4-(4-fluorophenyl)piperidine-1-carbonyl]-N-(propylcarbamoyl)pyridine-2-sulfonamide]",≥ 50%
3,"Cc1cc(F)ccc1Nc1cc(S(=O)(=O)NC(=O)NC(C)C)ncc1C(=O)N1CCC(c2ccc(F)cc2)CC1 [Compound 171, 4-(4-fluoro-2-methylphenylamino)-5-[4-(4-fluorophenyl)piperidine-1-carbonyl]-N-(isopropylcarbamoyl)pyridine-2-sulfonamide]",≥ 50%
4,"Cc1cc(F)ccc1Nc1cc(S(=O)(=O)NC(=O)NC2CC2)ncc1C(=O)N1CCC(c2ccc(F)cc2)CC1 [Compound 172, N-(cyclopropylcarbamoyl)-4-(4-fluoro-2-methylphenylamino)-5-[4-(4-fluorophenyl)piperidine-1-carbonyl]pyridine-2-sulfonamide]",≥ 50%
5,"CCOC(=O)NS(=O)(=O)c1cc(Nc2ccc(Cl)cc2C)c(C(=O)N2CCC(c3ccc(F)cc3)CC2)cn1 [Compound 173, ethyl 4-(4-chloro-2-methylphenylamino)-5-[4-(4-fluorophenyl)piperidine-1-carbonyl]pyridin-2-ylsulfonylcarbamate]",≥ 50%
6,"CCOC(=O)NS(=O)(=O)c1cc(Nc2ccc(F)cc2C)c(C(=O)N2CCC(c3ccc(F)cc3)CC2)cn1 [Compound 174, ethyl 4-(4-fluoro-2-methylphenylamino)-5-[4-(4-fluorophenyl)piperidine-1-carbonyl]pyridin-2-ylsulfonylcarbamate]",≥ 50%
7,"Cc1cc(F)ccc1Nc1cc(S(=O)(=O)NC(=O)OC(C)C)ncc1C(=O)N1CCC(c2ccc(F)cc2)CC1 [Compound 175, isopropyl 4-(4-fluoro-2-methylphenylamino)-5-[4-(4-fluorophenyl)piperidine-1-carbonyl]pyridin-2-ylsulfonylcarbamate]",≥ 50%
8,"COc1ccc(Nc2c(C(=O)N3CCC(c4ccc(F)cc4)CC3)cnc(S(N)(=O)=O)c2Cl)c(C)c1 [Compound 178, 3-chloro-5-[4-(4-fluorophenyl)piperidine-1-carbonyl]-4-(4-methoxy-2-methylphenylamino)pyridine-2-sulfonamide]",≥ 50%
9,"COc1ccc(Nc2c(C(=O)N3CCC(c4ccc(F)cc4)CC3)cnc(S(N)(=O)=O)c2Cl)c(Cl)c1 [Compound 179, 3-chloro-4-(2-chloro-4-methoxyphenylamino)-5-[4-(4-fluorophenyl)piperidine-1-carbonyl]pyridine-2-sulfonamide]",≥ 50%
10,"Cc1c(Cl)cccc1Nc1c(C(=O)N2CCC(c3ccc(F)cc3)CC2)cnc(S(N)(=O)=O)c1Cl [Compound 180, 3-chloro-4-(3-chloro-2-methylphenylamino)-5-[4-(4-fluorophenyl)piperidine-1-carbonyl]pyridine-2-sulfonamide]",≥ 50%
11,"Cc1ccc(Nc2c(C(=O)N3CCC(c4ccc(F)cc4)CC3)cnc(S(N)(=O)=O)c2Cl)cc1Cl [Compound 181, 3-chloro-4-(3-chloro-4-methylphenylamino)-5-[4-(4-fluorophenyl)piperidine-1-carbonyl]pyridine-2-sulfonamide]",≥ 50%
12,"NS(=O)(=O)c1ncc(C(=O)N2CCC(c3ccc(F)cc3)CC2)c(Nc2c(F)cccc2F)c1Cl [Compound 182, 3-chloro-4-(2,6-difluorophenylamino)-5-[4-(4-fluorophenyl)piperidine-1-carbonyl]pyridine-2-sulfonamide]",≥ 50%
13,"Cc1cc(F)ccc1Nc1c(C(=O)N2CCC(C#N)(c3ccccc3)CC2)cnc(S(N)(=O)=O)c1Cl [Compound 195, 3-chloro-5-(4-cyano-4-phenylpiperidine-1-carbonyl)-4-(4-fluoro-2-methylphenylamino)pyridine-2-sulfonamide]",≥ 50%
14,"Cc1cc(Cl)ccc1Nc1c(C(=O)N2CCC(c3ccc(F)cc3)CC2)cnc(S(N)(=O)=O)c1C [Compound 196, 4-(4-chloro-2-methylphenylamino)-5-[4-(4-fluorophenyl)piperidine-1-carbonyl]-3-methylpyridine-2-sulfonamide]",≥ 50%
15,"Cc1c(S(N)(=O)=O)ncc(C(=O)N2CCC(c3ccc(F)cc3)CC2)c1Nc1cccc(Cl)c1 [Compound 197, 4-(3-chlorophenylamino)-5-[4-(4-fluorophenyl)piperidine-1-carbonyl]-3-methylpyridine-2-sulfonamide]",≥ 50%
16,"Cc1cccc(Nc2c(C(=O)N3CCC(O)(c4ccc(F)cc4)CC3)cnc(S(N)(=O)=O)c2Cl)c1 [Compound 199, 3-chloro-5-[4-(4-fluorophenyl)-4-hydroxypiperidine-1-carbonyl]-4-(m-tolylamino)pyridine-2-sulfonamide]",≥ 50%

# Next, values leading:
row,inhibition at up to 1 µM,SMILES
1,≥ 50%,"Cc1cc(Cl)ccc1Nc1c(C(=O)N2CCC(c3ccc(F)cc3)CC2)cnc(S(N)(=O)=O)c1Cl [Compound 177, 3-chloro-4-(4-chloro-2-methylphenylamino)-5-[4-(4-fluorophenyl)piperidine-1-carbonyl]pyridine-2-sulfonamide]"
2,≥ 50%,"Cc1cc(F)ccc1Nc1c(C(=O)N2CCC(c3ccc(F)cc3)CC2)cnc(S(=O)(=O)N2CCC(N)CC2)c1Cl [Compound 184, [6-(4-aminopiperidin-1-ylsulfonyl)-5-chloro-4-(4-fluoro-2-methylphenylamino)pyridin-3-yl][4-(4-fluorophenyl)piperidin-1-yl]methanone]"
3,≥ 50%,"Cc1cc(F)ccc1Nc1c(C(=O)N2CCC(c3ccc(F)cc3)CC2)cnc(S(=O)(=O)N2C(=O)OCC2(C)C)c1Cl [Compound 187, 3-{3-chloro-4-(4-fluoro-2-methylphenylamino)-5-[4-(4-fluorophenyl)piperidine-1-carbonyl]pyridin-2-ylsulfonyl}-4,4-dimethyloxazolidin-2-one]"
4,≥ 50%,"Cc1cc(F)ccc1Nc1c(C(=O)N2CCC(c3ccc(F)cc3)CC2)cnc(S(=O)(=O)Nc2nccs2)c1Cl [Compound 188, 3-chloro-4-(4-fluoro-2-methylphenylamino)-5-[4-(4-fluorophenyl)piperidine-1-carbonyl]-N-(thiazol-2-yl)pyridine-2-sulfonamide]"
5,≥ 50%,"Cc1cc(F)ccc1Nc1c(C(=O)N2CCC(c3ccc(F)cc3)CC2)cnc(S(=O)(=O)Nc2c(C)noc2C)c1Cl [Compound 189, 3-chloro-N-(3,5-dimethylisoxazol-4-yl)-4-(4-fluoro-2-methylphenylamino)-5-[4-(4-fluorophenyl)piperidine-1-carbonyl]pyridine-2-sulfonamide]"
6,≥ 50%,"Cc1cc(F)ccc1Nc1c(C(=O)N2CCC(c3ccc(F)cc3)CC2)cnc(S(=O)(=O)Nc2ccon2)c1Cl [Compound 190, 3-chloro-4-(4-fluoro-2-methylphenylamino)-5-[4-(4-fluorophenyl)piperidine-1-carbonyl]-N-(isoxazol-3-yl)pyridine-2-sulfonamide]"
7,≥ 50%,"Cc1cc(F)ccc1Nc1c(C(=O)N2CCC(c3ccc(F)cc3)CC2)cnc(S(=O)(=O)Nc2ccccc2)c1Cl [Compound 191, 3-chloro-4-(4-fluoro-2-methylphenylamino)-5-[4-(4-fluorophenyl)piperidine-1-carbonyl]-N-phenylpyridine-2-sulfonamide]"
8,≥ 50%,"Cc1cc(F)ccc1Nc1c(C(=O)N2CCC(c3ccc(F)cc3)CC2)cnc(S(=O)(=O)n2ccc3ncccc32)c1Cl [Compound 192, [6-(1H-pyrrolo[3,2-b]pyridin-1-ylsulfonyl)-5-chloro-4-(4-fluoro-2-methylphenylamino)pyridin-3-yl][4-(4-fluorophenyl)piperidin-1-yl]methanone]"
9,≥ 50%,"CONS(=O)(=O)c1ncc(C(=O)N2CCC(c3ccc(F)cc3)CC2)c(Nc2ccc(F)cc2C)c1Cl [Compound 193, 3-chloro-4-(4-fluoro-2-methylphenylamino)-5-[4-(4-fluorophenyl)piperidine-1-carbonyl]-N-methoxypyridine-2-sulfonamide]"
10,≥ 50%,"Cc1cc(F)ccc1Nc1c(C(=O)N2CCC(c3ccc(F)cc3)CC2)cnc(S(N)(=O)=NC(=O)c2ccccc2)c1Cl (stereo not drawn) [Compound 194, 3-chloro-4-(4-fluoro-2-methylphenylamino)-5-[4-(4-fluorophenyl)piperidine-1-carbonyl]-N′-benzoylpyridine-2-sulfonimidamide]"
11,≥ 50%,"Cc1cc(F)ccc1Nc1c(C(=O)N2CCC(c3ccc(F)cc3)CC2)cnc(S(=N)(N)=O)c1Cl (stereo not drawn) [Compound 200, 3-chloro-4-(4-fluoro-2-methylphenylamino)-5-[4-(4-fluorophenyl)piperidine-1-carbonyl]pyridine-2-sulfonimidamide]"
